From patent publication US10118947B2, “Modulation of structured polypeptide specificity” (BICYCLE THERAPEUTICS LIMITED, priority 2013, dated 2018) come the findings set out here.

Where two headings read alike, the source gives them in different places. Numbered stars: 1 amine (or outer) side, 2 acyl side, 3 side chain; on linkers, the order of the positions; unused ones are H or OH. Bridge positions count the residues as written; N and C are the ends. Square brackets hold non-standard residues; d marks the D form. Peptide text beside a SMILES is read from it. Ala(4-thiazolyl) = N[C@@H](Cc1cscn1)C(=O)O; His(τ-Me) = Cn1cnc(C[C@H](N)C(=O)O)c1; TBMB = c1c(C[*:1])cc(C[*:3])cc1C[*:2]; His(π-Me) = Cn1cncc1C[C@H](N)C(=O)O; 4Pal = N[C@@H](Cc1ccncc1)C(=O)O; Agb = N=C(N)NCC[C@H](N)C(=O)O; Agp = N=C(N)NC[C@H](N)C(=O)O; Dap = NC[C@H](N)C(=O)O

This experiment addresses T1, human plasma Kallikrein (Homo sapiens, UniProt P03952).
T1 construct: purchased Stratech, UK
Put plainly: Functional enzyme inhibition assay with fluorogenic substrate Z-PheArg-AMC, human plasma Kallikrein. As to conditions: for Ki: read-out: Ki; for F (Kivar/KiWT): ratio of Ki to wild type. The experiment is classed as biochemical. Here is the method: Functional enzyme assays were conducted in 10 mM Tris HCl, 150 mM NaCl, 10 mM MgCl2, 1 mM CaCl2) and 1 mg/mL BSA (all Sigma UK) pH7.4 at 25° C. in solid black 96 well plates. Briefly 26.5 pM human plasma Kallikrein (purchased from Stratech, UK) or 500 pM rat plasma Kallikrein (expressed and purified in house) were incubated in the absence or presence of increasing concentrations of test peptide for 15 minutes before addition of the fluorogenic substrate Z-PheArg-AMC (Enzo Lifesciences UK) to a final assay concentration of 100 μM in 4% DMSO. Release of AMC was measured using a Pherastar FS (BMG Labtech), excitation 360 nm, emission 460 nm. The rate of the linear phase of the reaction, typically 5 to 45 minutes, was calculated in MARS data analysis software (BMG labtech). The rate was then used to calculate the IC50 and Ki in Prism (GraphPad). A four parameter inhibition non-linear regression equation was used to calculate the IC50.
Peptides were dissolved as the TFA-salts in their powder form, and stock solutions were usually prepared in water. All solutions were centrifuged and filtered ([…] syringe filters) prior absorption measurement at 280 nm. […] For peptides containing non-natural amino acids with suspected chromophoric properties (i.e. NorHar, 4PhenylPro, 3Pal, 4Pal, Tic, 4GuanPhe, 4,4-BPAI, 3,3-DPA, 1NAI, 2NAI, 4BenzylPro, Ind) concentrations were determined by weighing the powder and dissolving the peptide in a defined quantity of water.

Where [1] appears, read: Table 24b, residue 7 modifications.
The mark [2] stands for this setting: Table 24c, residue 8 modifications.
[3] abbreviates: Table 3c, D-Alanine scan in Loop2.

T1 sequence (P03952 20-638): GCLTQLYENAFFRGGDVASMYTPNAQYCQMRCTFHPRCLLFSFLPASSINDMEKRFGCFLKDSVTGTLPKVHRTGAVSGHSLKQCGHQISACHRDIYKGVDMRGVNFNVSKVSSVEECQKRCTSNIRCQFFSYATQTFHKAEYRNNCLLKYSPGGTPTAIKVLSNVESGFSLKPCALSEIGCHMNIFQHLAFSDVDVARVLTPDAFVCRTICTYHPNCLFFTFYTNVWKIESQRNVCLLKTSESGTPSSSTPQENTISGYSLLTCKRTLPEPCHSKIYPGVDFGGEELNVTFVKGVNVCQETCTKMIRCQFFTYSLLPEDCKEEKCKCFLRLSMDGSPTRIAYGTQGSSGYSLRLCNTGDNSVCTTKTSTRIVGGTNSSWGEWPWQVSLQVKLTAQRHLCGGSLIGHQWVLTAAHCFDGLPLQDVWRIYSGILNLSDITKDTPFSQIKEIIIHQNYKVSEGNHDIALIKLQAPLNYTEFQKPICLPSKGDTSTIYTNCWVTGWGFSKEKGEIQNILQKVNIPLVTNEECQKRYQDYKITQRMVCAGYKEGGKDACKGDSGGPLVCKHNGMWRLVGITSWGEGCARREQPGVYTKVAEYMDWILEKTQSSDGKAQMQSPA

For orientation: Ki means the equilibrium dissociation constant of an inhibitor or competing ligand from its target. Take `CC(=O)N[C@H]1CSCc2cc3cc(c2)CSC[C@H](NC(=O)[C@H](CCCNC(=N)N)NC(=O)[C@H](Cc2ccc(O)cc2)NC(=O)[C@@H]2CCCN2C(=O)[C@H](Cc2ccccc2)NC(=O)[C@H](CO)NC1=O)C(=O)N[C@@H](CC(C)C)C(=O)N[C@@H](Cc1ccncc1)C(=O)N[C@@H](CCC(N)=O)C(=O)N[C@@H](CC(=O)O)C(=O)N[C@@H](CC(C)C)C(=O)N[C@H](C(N)=O)CSC3` [Ac-(06-34-18) Phe2 Tyr4 4Pal7] (Ac-CSFPYRCL[4Pal]QDLC-NH2; linker 1-7-13 via TBMB): under setting [1], the Ki was found to be 79 nM. Also, for the setting “Table 24b”, the “F (Kivar/KiWT)” value is on record as 187.
On the same counts, the results for `CC(=O)N[C@H]1CSCc2cc3cc(c2)CSC[C@H](NC(=O)[C@H](CCCNC(=N)N)NC(=O)[C@H](Cc2ccc(O)cc2)NC(=O)[C@@H]2CCCN2C(=O)[C@H](Cc2ccccc2)NC(=O)[C@H](CO)NC1=O)C(=O)N[C@@H](CC(C)C)C(=O)N[C@@H](Cc1cscn1)C(=O)N[C@@H](CCC(N)=O)C(=O)N[C@@H](CC(=O)O)C(=O)N[C@@H](CC(C)C)C(=O)N[C@H](C(N)=O)CSC3` [Ac-(06-34-18) Phe2 Tyr4 4ThiAz7] (Ac-CSFPYRCL[Ala(4-thiazolyl)]QDLC-NH2; linker 1-7-13 via TBMB) are 14 nM and 33.
For the molecule `CC(=O)N[C@H]1CSCc2cc3cc(c2)CSC[C@H](NC(=O)[C@H](CCCNC(=N)N)NC(=O)[C@H](Cc2ccc(O)cc2)NC(=O)[C@@H]2CCCN2C(=O)[C@H](Cc2ccccc2)NC(=O)[C@H](CO)NC1=O)C(=O)N[C@@H](CC(C)C)C(=O)N[C@@H](CCNC(=N)N)C(=O)N[C@@H](CCC(N)=O)C(=O)N[C@@H](CC(=O)O)C(=O)N[C@@H](CC(C)C)C(=O)N[C@H](C(N)=O)CSC3` [Ac-(06-34-18) Phe2 Tyr4 Agb7] (Ac-CSFPYRCL[Agb]QDLC-NH2; linker 1-7-13 via TBMB), the inhibitory constant (Ki) under setting [1] worked out at 2250 nM. Under “Table 24b”, the “F (Kivar/KiWT)” value is 5365.
For `CC(=O)N[C@H]1CSCc2cc3cc(c2)CSC[C@H](NC(=O)[C@H](CCCNC(=N)N)NC(=O)[C@H](Cc2ccc(O)cc2)NC(=O)[C@@H]2CCCN2C(=O)[C@H](Cc2ccccc2)NC(=O)[C@H](CO)NC1=O)C(=O)N[C@@H](CC(C)C)C(=O)N[C@@H](CNC(=N)N)C(=O)N[C@@H](CCC(N)=O)C(=O)N[C@@H](CC(=O)O)C(=O)N[C@@H](CC(C)C)C(=O)N[C@H](C(N)=O)CSC3` [Ac-(06-34-18) Phe2 Tyr4 Agp7] (Ac-CSFPYRCL[Agp]QDLC-NH2; linker 1-7-13 via TBMB) the same measures were 672 nM and 1599.
For the molecule `CC(=O)N[C@H]1CSCc2cc3cc(c2)CSC[C@H](NC(=O)[C@H](CCCNC(=N)N)NC(=O)[C@H](Cc2ccc(O)cc2)NC(=O)[C@@H]2CCCN2C(=O)[C@H](Cc2ccccc2)NC(=O)[C@H](CO)NC1=O)C(=O)N[C@@H](CC(C)C)C(=O)N[C@@H](Cc1c[nH]cn1)C(=O)N[C@@H](CC(=O)O)C(=O)N[C@@H](CC(=O)O)C(=O)N[C@@H](CC(C)C)C(=O)N[C@H](C(N)=O)CSC3` [Ac-(06-34-18) Phe2 Tyr4 Asp8] (Ac-CSFPYRCLHDDLC-NH2; linker 1-7-13 via TBMB), the Ki under setting [2] was found to be 3.83 nM. The “F (Kivar/KiWT)” value (Table 24c) stood at 9.
Turning to `CC(=O)N[C@H]1CSCc2cc3cc(c2)CSC[C@H](NC(=O)[C@H](CCCNC(=N)N)NC(=O)[C@H](Cc2ccc(O)cc2)NC(=O)[C@@H]2CCCN2C(=O)[C@H](Cc2ccccc2)NC(=O)[C@H](CO)NC1=O)C(=O)N[C@H](C)C(=O)N[C@@H](Cc1c[nH]cn1)C(=O)N[C@@H](CCC(N)=O)C(=O)N[C@@H](CC(=O)O)C(=O)N[C@@H](CC(C)C)C(=O)N[C@H](C(N)=O)CSC3` [Ac-(06-34-18) Phe2 Tyr4 D-Ala6] (Ac-CSFPYRC[dA]HQDLC-NH2; linker 1-7-13 via TBMB), the Ki under setting [3] was 9450 nM. The “F (Kivar/KiWT)” value (Table 3c) is 22507.
In the case of `CC(=O)N[C@H]1CSCc2cc3cc(c2)CSC[C@H](NC(=O)[C@H](CCCNC(=N)N)NC(=O)[C@H](Cc2ccc(O)cc2)NC(=O)[C@@H]2CCCN2C(=O)[C@H](Cc2ccccc2)NC(=O)[C@H](CO)NC1=O)C(=O)N[C@@H](CC(C)C)C(=O)N[C@@H](Cc1c[nH]cn1)C(=O)N[C@H](C)C(=O)N[C@@H](CC(=O)O)C(=O)N[C@@H](CC(C)C)C(=O)N[C@H](C(N)=O)CSC3` [Ac-(06-34-18) Phe2 Tyr4 D-Ala8] (Ac-CSFPYRCLH[dA]DLC-NH2; linker 1-7-13 via TBMB), the inhibitory constant (Ki) under setting [3] was found to be 243 nM. The “F (Kivar/KiWT)” value (Table 3c) was found to be 578.
Take `CC(=O)N[C@H]1CSCc2cc3cc(c2)CSC[C@H](NC(=O)[C@H](CCCNC(=N)N)NC(=O)[C@H](Cc2ccc(O)cc2)NC(=O)[C@@H]2CCCN2C(=O)[C@H](Cc2ccccc2)NC(=O)[C@H](CO)NC1=O)C(=O)N[C@@H](CC(C)C)C(=O)N[C@@H](Cc1c[nH]cn1)C(=O)N[C@@H](CCC(N)=O)C(=O)N[C@H](C)C(=O)N[C@@H](CC(C)C)C(=O)N[C@H](C(N)=O)CSC3` [Ac-(06-34-18) Phe2 Tyr4 D-Ala9] (Ac-CSFPYRCLHQ[dA]LC-NH2; linker 1-7-13 via TBMB): the Ki under setting [3] stood at 19.9 nM. Also, the “F (Kivar/KiWT)” value (Table 3c) came out at 47.
On the same counts, the results for `CC(=O)N[C@H]1CSCc2cc3cc(c2)CSC[C@H](NC(=O)[C@H](CCCNC(=N)N)NC(=O)[C@H](Cc2ccc(O)cc2)NC(=O)[C@@H]2CCCN2C(=O)[C@H](Cc2ccccc2)NC(=O)[C@H](CO)NC1=O)C(=O)N[C@@H](CC(C)C)C(=O)N[C@@H](Cc1c[nH]cn1)C(=O)N[C@@H](CCC(N)=O)C(=O)N[C@@H](CC(=O)O)C(=O)N[C@H](C)C(=O)N[C@H](C(N)=O)CSC3` [Ac-(06-34-18) Phe2 Tyr4 D-Ala10] (Ac-CSFPYRCLHQD[dA]C-NH2; linker 1-7-13 via TBMB) are 572 nM and 1362.
On to `CC(=O)N[C@H]1CSCc2cc3cc(c2)CSC[C@H](NC(=O)[C@H](CCCNC(=N)N)NC(=O)[C@H](Cc2ccc(O)cc2)NC(=O)[C@@H]2CCCN2C(=O)[C@H](Cc2ccccc2)NC(=O)[C@H](CO)NC1=O)C(=O)N[C@@H](CC(C)C)C(=O)N[C@@H](CN)C(=O)N[C@@H](CCC(N)=O)C(=O)N[C@@H](CC(=O)O)C(=O)N[C@@H](CC(C)C)C(=O)N[C@H](C(N)=O)CSC3` [Ac-(06-34-18) Phe2 Tyr4 Dap7] (Ac-CSFPYRCL[Dap]QDLC-NH2; linker 1-7-13 via TBMB), for which the Ki under setting [1] came to 246 nM. The “F (Kivar/KiWT)” value (Table 24b) is given as 586.
Turning to `CC(=O)N[C@H]1CSCc2cc3cc(c2)CSC[C@H](NC(=O)[C@H](CCCNC(=N)N)NC(=O)[C@H](Cc2ccc(O)cc2)NC(=O)[C@@H]2CCCN2C(=O)[C@H](Cc2ccccc2)NC(=O)[C@H](CO)NC1=O)C(=O)N[C@@H](CC(C)C)C(=O)N[C@@H](Cc1c[nH]cn1)C(=O)N[C@@H](CN)C(=O)N[C@@H](CC(=O)O)C(=O)N[C@@H](CC(C)C)C(=O)N[C@H](C(N)=O)CSC3` [Ac-(06-34-18) Phe2 Tyr4 Dap8] (Ac-CSFPYRCLH[Dap]DLC-NH2; linker 1-7-13 via TBMB), the Ki under setting [2] is 5.49 nM. In addition, the “F (Kivar/KiWT)” value (Table 24c) turned out to be 13.
Turning to `CC(=O)N[C@H]1CSCc2cc3cc(c2)CSC[C@H](NC(=O)[C@H](CCCNC(=N)N)NC(=O)[C@H](Cc2ccc(O)cc2)NC(=O)[C@@H]2CCCN2C(=O)[C@H](Cc2ccccc2)NC(=O)[C@H](CO)NC1=O)C(=O)N[C@@H](CC(C)C)C(=O)N[C@@H](Cc1c[nH]cn1)C(=O)N[C@@H](CCC(=O)O)C(=O)N[C@@H](CC(=O)O)C(=O)N[C@@H](CC(C)C)C(=O)N[C@H](C(N)=O)CSC3` [Ac-(06-34-18) Phe2 Tyr4 Glu8] (Ac-CSFPYRCLHEDLC-NH2; linker 1-7-13 via TBMB), the Ki under setting [2] was 2.53 nM. Further, the “F (Kivar/KiWT)” value (Table 24c) amounted to 6.
Take `CC(=O)N[C@H]1CSCc2cc3cc(c2)CSC[C@H](NC(=O)[C@H](CCCNC(=N)N)NC(=O)[C@H](Cc2ccc(O)cc2)NC(=O)[C@@H]2CCCN2C(=O)[C@H](Cc2ccccc2)NC(=O)[C@H](CO)NC1=O)C(=O)N[C@@H](CC(C)C)C(=O)N[C@@H](Cc1cn(C)cn1)C(=O)N[C@@H](CCC(N)=O)C(=O)N[C@@H](CC(=O)O)C(=O)N[C@@H](CC(C)C)C(=O)N[C@H](C(N)=O)CSC3` [Ac-(06-34-18) Phe2 Tyr4 His1Me7] (Ac-CSFPYRCL[His(τ-Me)]QDLC-NH2; linker 1-7-13 via TBMB): the inhibitory constant (Ki) under setting [1] was 10 nM. The “F (Kivar/KiWT)” value (Table 24b) was found to be 23.
Regarding `CC(=O)N[C@H]1CSCc2cc3cc(c2)CSC[C@H](NC(=O)[C@H](CCCNC(=N)N)NC(=O)[C@H](Cc2ccc(O)cc2)NC(=O)[C@@H]2CCCN2C(=O)[C@H](Cc2ccccc2)NC(=O)[C@H](CO)NC1=O)C(=O)N[C@@H](CC(C)C)C(=O)N[C@@H](Cc1cncn1C)C(=O)N[C@@H](CCC(N)=O)C(=O)N[C@@H](CC(=O)O)C(=O)N[C@@H](CC(C)C)C(=O)N[C@H](C(N)=O)CSC3` [Ac-(06-34-18) Phe2 Tyr4 His3Me7] (Ac-CSFPYRCL[His(π-Me)]QDLC-NH2; linker 1-7-13 via TBMB), under setting [1], the Ki stood at 292 nM. In addition, the “F (Kivar/KiWT)” value (Table 24b) is reported as 696.
